According to patent US20150335677A1, “Argon is a mu opioid receptor antagonist” (priority 2014, published 2015):

Key:
Sprague-Dawley rats [1] = assay: Social interaction in open field; type: in vivo, rat; details: argon 75 vol % 3 h day 1 to day 3 vs air; recorded after treatment on days 1 to 3 and on day 7; P<0.05
Method: (§1) In a first series of experiments, male adult Sprague-Dawley rats (n=6 per group) were treated for 3 h from day 1 to day 3 with ‘medical’ air (composed of 75 vol % nitrogen and 25 vol % oxygen) or argon at 75 vol % (with the remainder being oxygen) at a flow rate of 5 L/min in a closed chamber. None of the animals were habituated to handling with their abdomen side up. Immediately after being treated with either air or argon from day 1 to day 3, and on day 7, rats were handled by an experimenter blind of the rats' gas treatment, with their back placed in the palm of the experimenter and their abdomen side up. The rat's stress level was rated both by the experimenter and an additional observer, also blind of the rats' gas treatment, by counting the number of righting reflex of the animals during a 1-min period on a scale of 0 to 3 with 0 being a total absence of righting reflex and 3 being repetitive righting reflexes. Then, the rats' social interaction was also evaluated. The animals were placed by group of 2 in an open field measuring 90 cm×90 cm for a 10-min period, and the time spent by the animals at a distance comprised between 2 and 5 cm was recorded and taken as a behavioral marker of social interaction.

mu opioid receptor = molecular target: T1, mu opioid receptor (Rattus norvegicus, UniProt P33535); assay: [3H]-DAMGO binding in rat whole-brain membrane protein preparations; details: 100 vol % argon compared to 100 vol % nitrogen
T1 construct: Membrane preparations were obtained from whole brains of rats untreated (n=4); from tissue; host or cells: rat whole brain membranes
Method: Membrane preparations were obtained from whole brains of rats untreated (n=4). The brains were crushed and homogenized in TRIS-HCl 50 mM buffer. After centrifugation, the bases of the vials were suspended in the same volume of TRIS-HCl buffer (×2). When the membrane preparation was obtained, the proteins were quantified to prepare in fine a solution at 1 mg/ml. Proteins were quantified using a BCA protein assay. Then, binding studies were performed as follows: solutions to allow calculating total binding were prepared by adding 385 μL of a TRIS-HCl buffer to 330 μL of proteins and 385 μL of [^3H]-DAMGO at decreasing concentrations (n=2 per dose, N=12). Solutions to allow calculating non-specific binding were prepared in the same fashion with naloxone instead of buffer. The vials containing these solutions were left open and placed in a closed chamber to allow saturating the solutions with 100 vol % nitrogen or argon. 1000 μL of each vial were placed in a 24-well plate coated with polyethylenimine. After drying, 100 μL scintillant was added to allow counting radioactivity (×3). Specific binding was obtained by subtracting non-specific binding to total binding, and Bmax, Kd, and Bmax×1/Kd (mu receptor activity) were calculated.

[2] = normobaric and hyperbaric pressures of 1 to 4 atmospheres absolute; cited from earlier work
Sprague-Dawley rats [3] = assay: Stress level: righting reflex when handled abdomen side up; type: in vivo, rat; details: argon 75 vol % 3 h day 1 to day 3 vs air; recorded after treatment on days 1 to 3 and on day 7; P<0.05
Method: as §1

[4] = molecular target: T2, type 2 vesicular monoamine transporter (Rattus norvegicus, UniProt Q01827); assay: Carrier-mediated and KCl-evoked dopamine release in nucleus accumbens brain slices with amphetamine; type: cell-based
T2 construct: Coronal brain slices (400 μm thickness) including the nucleus accumbens; from tissue; host or cells: rat nucleus accumbens brain slices
Method: Rats were killed by decapitation and the brains were carefully removed and placed in ice-cold artificial cerebrospinal fluid (aCSF). Coronal brain slices (400 μm thickness) including the nucleus accumbens (anteriority: −1.2 to +2 mm from the bregma) were cut using a tissue chopper. Before being used, brain slices (n=4 per condition) were allowed to recover at room temperature for 1 hour in oxygenated a CSF. […] Control slices were treated with saline solution and air. Carrier-mediated and depolarization-dependent (KCl: 100 mM) dopamine release in the nucleus accumbens were monitored using a polarograph and standard glass-encased nafion-precoated carbon fiber electrodes (David H. N. et al., Biol. Psych., 2006). […] Therefore, in the experiments with argon, argon was only administered after Peak 1 (P1) KCl-evoked dopamine release had returned to baseline (B2).

[5] = system: type A γ-aminobutyric acid (GABA) and benzodiazepine receptors; details: pressure of around 15 atmospheres absolute; cited from earlier work
[6] = system: spontaneously hypertensive rats; assay: Locomotor activity in spontaneously hypertensive rats (ADHD model); type: in vivo, rat; details: argon 75 vol % 3 h daily day 1 to day 3 vs medical air; recorded on day 7; P<0.02
Method: Male spontaneously hypertensive rats (n=7-8 per group), known to show spontaneous locomotor hyperactivity and used as a model for the attention deficit and hyperactivity disorder (ADHD), were treated daily from day 1 to day 3 for 3 h with ‘medical’ air (composed of 75 vol % nitrogen and 25 vol % oxygen) or argon at 75 vol % (with the remainder being oxygen) at a flow rate of 5 L/min in a closed chamber. On day 7, rats were habituated to the activity boxes for 1 h before being recorded for locomotor activity for 1 h 30 min as detailed previously (David et al., Neuropharmacol., 2004).

Sprague-Dawley rats [7] = assay: Time in central area of open field after electric shock conditioning; type: in vivo, rat; details: argon 75 vol % 3 h day 4 to day 6 vs air; recorded on days 4 to 6 and on day 8; P<0.05
Method: In a second series of experiments, from day 1 to day 3, additional male Sprague-Dawley rats (n=6 per group) were placed for 10 min in an open field measuring 90 cm×90 cm, which central area measuring 50 cm×50 cm was equipped for delivering an electric shock to the animals that stayed more than 5 s in the area. From day 4 to day 6, the animals were treated for 3 h with medical air or argon at 75 vol % at a flow rate of 5 L/min in a closed chamber. Immediately after being treated with either air or argon from day 4 to day 6, and on day 8, rats were placed in the open field, and recorded during a 10-min period for the time that they spent in the central area whose electrical circuit was switched off.

T1 sequence (P33535 whole entry): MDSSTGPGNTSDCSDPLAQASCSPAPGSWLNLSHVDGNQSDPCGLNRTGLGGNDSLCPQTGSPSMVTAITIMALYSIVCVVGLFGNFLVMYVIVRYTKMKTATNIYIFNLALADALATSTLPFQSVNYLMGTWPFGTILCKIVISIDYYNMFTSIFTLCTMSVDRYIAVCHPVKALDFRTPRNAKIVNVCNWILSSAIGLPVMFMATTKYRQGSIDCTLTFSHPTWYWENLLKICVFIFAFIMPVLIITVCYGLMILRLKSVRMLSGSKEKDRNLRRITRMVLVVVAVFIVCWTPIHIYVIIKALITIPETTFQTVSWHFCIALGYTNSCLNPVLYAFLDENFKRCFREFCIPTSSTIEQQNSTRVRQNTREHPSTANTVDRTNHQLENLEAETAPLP
T2 sequence (Q01827 whole entry): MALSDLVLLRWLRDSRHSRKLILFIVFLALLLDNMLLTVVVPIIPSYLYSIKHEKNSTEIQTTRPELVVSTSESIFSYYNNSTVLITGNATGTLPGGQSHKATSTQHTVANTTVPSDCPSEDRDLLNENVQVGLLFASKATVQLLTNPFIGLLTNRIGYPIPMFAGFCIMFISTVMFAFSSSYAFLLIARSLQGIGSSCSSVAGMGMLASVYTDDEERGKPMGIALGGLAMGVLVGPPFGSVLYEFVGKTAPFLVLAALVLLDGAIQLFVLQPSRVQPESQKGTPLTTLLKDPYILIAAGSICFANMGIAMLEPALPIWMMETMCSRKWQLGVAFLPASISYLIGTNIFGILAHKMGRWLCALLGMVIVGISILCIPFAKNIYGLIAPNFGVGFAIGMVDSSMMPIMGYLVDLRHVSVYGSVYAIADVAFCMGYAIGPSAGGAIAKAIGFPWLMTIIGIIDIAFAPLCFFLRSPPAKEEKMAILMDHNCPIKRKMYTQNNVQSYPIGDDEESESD

[Ar] [argon]
social interactions (Sprague-Dawley rats [1]): increased number of social interactions | 1/Kd (affinity) of DAMGO binding (mu opioid receptor): trend toward reduction | decrease in mu receptor activity (Bmax×1/Kd) (mu opioid receptor; P<0.05): 60% | decrease of Bmax (number of receptors) of DAMGO binding (mu opioid receptor; membrane protein preparations): 15% | side effects of breathing argon [2]: no or minimal side effect | number of righting reflex when handled abdomen side up (Sprague-Dawley rats [3]): reduced number of righting reflex | effect on Peak 2 KCl-evoked dopamine release ([4]; amphetamine in the presence of air or argon, KCl 100 mM): lack of effect | effect on amphetamine-induced reduction in Peak 3 (P3) KCl-evoked dopamine release ([4]; argon 75 vol % vs air, with amphetamine, KCl 100 mM, P<0.02): further potentiates the reduction | effect on amphetamine-induced increase in carrier-mediated dopamine release ([4]; argon 75 vol % vs air, with amphetamine, rat nucleus accumbens slices, P<0.02): decreases the facilitating action of amphetamine | action at type A GABA and benzodiazepine receptors [5]: acts as an agonist | locomotor activity [6]: lower locomotor activity | time spent in central area of the open field (Sprague-Dawley rats [7]): penetrated the central area of the open field to a greater extent
